Consider one molecule from US10478430B2, “Compounds useful as inhibitors of ATR kinase and combination therapies thereof” (Vertex Pharmaceuticals Incorporated, priority 2012, dated 2019).

Common to all, as to format: cell-based
Experiment [1] concerns H23 non-small cell lung cancer cells. The experiment in a line: MTS cell density assay, synergy of VE-822 with Rucaparib (MacSynergy II). The following applies: VE-822 + Rucaparib, 96 h, 95% confidence interval. The method, then: (§1) H23 non-small cell lung cancer (a), U2OS osteosarcoma (b), HCT116 colorectal cancer (c), MCF7 breast cancer (d), HT144 melanoma (e), HT29 colorectal cancer (f), and PSN1 pancreatic cancer (g) cells were treated in triplicate with the indicated concentrations of VE-822 and Rucaparib for 96h. Cell density was measured by 3-(4,5-dimethylthiazol-2-yl)-5-(3-carboxymethoxyphenyl)-2-(4-sulfophenyl)-2H-tetrazolium (MTS) assay, and synergy was analyzed at the 95% confidence interval with MacSynergy II software. A range of synergy was observed from strong (a) to negligible (g).
(§2) H23 non-small cell lung cancer (a) and HFL1 normal lung (b) cells were treated in triplicate with the indicated concentrations of VE-822 and Rucaparib for 96h. Cell density was measured by 3-(4,5-dimethylthiazol-2-yl)-5-(3-carboxymethoxyphenyl)-2-(4-sulfophenyl)-2H-tetrazolium (MTS) assay, and synergy was analyzed at the 95% confidence interval with MacSynergy II software.
FIG. 4. […] The synergy plots can be analyzed using methods described in Reaper et al, “Selective Killing of ATM- or p53-deficient cancer cells through inhibition of ATR”, Nat. […]
FIG. 5. […] The synergy plots can be analyzed using methods described in Reaper et al, “Selective Killing of ATM- or p53-deficient cancer cells through inhibition of ATR”, Nat. […]

The subject of experiment [2] is PSN1 pancreatic cancer cells. Described as above. The following applies: VE-822 + Rucaparib, 96 h, 95% confidence interval. The method, then:
as §1
(§3) FIG. 4. H23 non-small cell lung cancer (a), U2OS osteosarcoma (b), HCT116 colorectal cancer (c), MCF7 breast cancer (d), HT144 melanoma (e), HT29 colorectal cancer (f) and PSN1 pancreatic cancer (g) cells were treated in triplicate with the indicated concentrations of VE-822 and Rucaparib for 96 h, cell density was measured by 3-(4,5-dimethylthiazol-2-yl)-5-(3-carboxymethoxyphenyl)-2-(4-sulfophenyl)-2H-tetrazolium (MTS) assay and synergy was analyzed at the 95% confidence interval with MacSynergy II software. A range of synergy was observed from strong (a) to negligible (g). The synergy plots can be analyzed using methods described in Reaper et al, “Selective Killing of ATM- or p53-deficient cancer cells through inhibition of ATR”, Nat. Chem. Bio. 2011, Apr. 13; 9 (7):428-430.

A further experiment deals with HFL1 normal lung cells. Described as above. The following applies: VE-822 + Rucaparib, 96 h, 95% confidence interval. The protocol: as §2
FIG. 5. H23 non-small cell lung cancer (a) and HFL1 normal lung (b) cells were treated in triplicate with the indicated concentrations of VE-822 and Rucaparib for 96 h, cell density was measured by 3-(4,5-dimethylthiazol-2-yl)-5-(3-carboxymethoxyphenyl)-2-(4-sulfophenyl)-2H-tetrazolium (MTS) assay and synergy was analyzed at the 95% confidence interval with MacSynergy II software. The synergy plots can be analyzed using methods described in Reaper et al, “Selective Killing of ATM- or p53-deficient cancer cells through inhibition of ATR”, Nat. Chem. Bio. 2011, Apr. 13; 9 (7):428-430.

Experiment [3] deals with H23, U2OS, HCT116, MCF7, HT144, HT29 and PSN1 cancer cells. As to the kind of experiment: MTS cell density assay, synergy of VE-822 with Rucaparib across a cancer cell line panel. The following applies: seven cancer cell lines, VE-822 + Rucaparib, 96 h, in vitro. The protocol:
as §1, §3
In general terms: Formazan colour is commonly taken as a measure of viable cells.

Experiment [4] deals with H23 non-small cell lung cancer and HFL1 normal lung cells. As to the kind of experiment: MTS cell density assay, triple combination of VE-822, Rucaparib and ionizing radiation. The following applies: H23 versus HFL1 cells, with 2 Gy IR, 96 h, MacSynergy II modified for triple combination. The protocol: (§4) In FIG. 6A, H23 non-small cell lung cancer (a) and HFL1 normal lung (b) cells were treated in triplicate with the indicated concentrations of VE-822 and Rucaparib together with 2 gray (Gy) of IR. Cell density was measured after 96h by 3-(4,5-dimethylthiazol-2-yl)-5-(3-carboxymethoxyphenyl)-2-(4-sulfophenyl)-2H-tetrazolium (MTS) assay, and synergy was analyzed at the 95% confidence interval with MacSynergy II software modified for triple combination studies (Nguyen et al, PLOS One 5:9332). In FIG. 6B, H23 non-small cell lung cancer (a) and HFL1 normal lung (b) cells were treated in triplicate with the indicated concentrations of VE-822 and Rucaparib together with 80nM cisplatin. Cell density was measured after 96h by 3-(4,5-dimethylthiazol-2-yl)-5-(3-carboxymethoxyphenyl)-2-(4-sulfophenyl)-2H-tetrazolium (MTS) assay, and synergy was analyzed at the 95% confidence interval with MacSynergy II software modified for triple combination studies (Nguyen et al, PLOS One 5:9332).
FIG. 6a. […] The synergy plots can be analyzed using methods described in Reaper et al, “Selective Killing of ATM- or p53-deficient cancer cells through inhibition of ATR”, Nat. […]

For experiment [5] the test system is unchanged. As to the kind of experiment: MTS cell density assay, triple combination of VE-822, Rucaparib and cisplatin. To be noted: H23 versus HFL1 cells, with 80 nM cisplatin, 96 h, MacSynergy II modified for triple combination. The method, then: as §4
FIG. 6b. […] The synergy plots can be analyzed using methods described in Reaper et al, “Selective Killing of ATM- or p53-deficient cancer cells through inhibition of ATR”, Nat. […]

“Also recorded” adds a separate entry of the source.

With `CNCc1ccc(-c2cc(-c3nc(-c4ccc(S(=O)(=O)C(C)C)cc4)cnc3N)on2)cc1` [VE-822], the figures for the “synergy with the PARP inhibitor Rucaparib” value (in experiment [1]; in experiment [2]; with HFL1 normal lung cells) were “strong; also recorded: synergizes with the PARP inhibitor Rucaparib in cancer”, “negligible” and “not normal cells”, respectively. Moreover, the “synergy with the PARP inhibitor Rucaparib across cancer cell lines” value in experiment [3] is on record as “synergizes with the PARP inhibitor Rucaparib in many (but not all) cancer cell lines”. Moreover, in experiment [4], the “synergy of the combination of VE-822, Rucaparib and ionizing radiation” value is listed as “cancer-selective synergistic effects”. The “synergy of the combination of VE-822, Rucaparib and cisplatin” value in experiment [5] is listed as “cancer-selective synergistic effects”.
